Values after ≈ are worked out from the molar mass of the structure shown. *1 amine or outer side, *2 acyl side, *3 side chain or, on linkers, in order; H or OH if unused. Where a SMILES comes first, the peptide text is derived from it. [ ]: non-standard residue; d: D form. dAla(ψthiazole) = C[C@@H](N[*:1])c1nc(C(=O)[*:2])cs1; Trp(4-Br) = N[C@@H](Cc1c[nH]c2cccc(Br)c12)C(=O)O; Dhb = C/C=C(\N)C(=O)O; Sar = CNCC(=O)O
Experiments:
[1] = mice
Description: In this study, a single oral dose of compound 3 in 0.5% w/v aqueous methylcellulose at 5 mg/kg was administered to nine mice in a 10 mL/kg dosing volume and housed in metabolism cages. Following administration of the compound, serial blood samples of 50 μL was taken from the lateral tail vein at each of 7 post-dosing time-points (0.25, 0.5, 1, 2, 4, 7 and 24 h). Whole blood samples were then diluted 1:1 with water and two 40 μL aliquots were pipetted into duplicate 96 well plate tubes. At the end of 24 h, all faecal samples were collected and pooled. A quantitative bioanalysis by LC-MS/MS of the blood and faecal levels of compound 3 was carried out to determine the oral absorbability and gastrointestinal metabolic stability of compound 3.
To evaluate the metabolic stability of orally administered compound 3, metabolite profiling of the faecal sample was performed.

[2] = tested on: Actinomyces viscosus DSM 43327

In the case of `C/C=C1\NC(=O)[C@@H](C)NC(=O)CNC(=O)[C@H](Cc2c[nH]c3cccc(Br)c23)NC(=O)[C@H](Cc2c[nH]c3ccccc23)NC(=O)c2csc(n2)[C@@H](C)NC(=O)CN(C)C1=O` [Compound 10, Cyclo[D-Ala-Thz-Trp-Trp(4-Br)-Gly-D-Ala-Dhb-Sar]] (cyclo([Dhb][Sar][dAla(ψthiazole)]W[Trp(4-Br)]G[dA])), the “compound recovered from pooled faeces” value ([1]; oral 5 mg/kg, 24 h) is reported as “up to 90%”, the “faecal concentration, times above the MIC against C. difficile” value ([1]; single 5 mg/kg oral dose) is reported as “more than 200” and the MIC [2] is reported as 8 µg/mL (≈ 9.01 µM).

Source: patent US11192888B2, “Antibacterial compounds” (priority 2017, dated 2021)
